Results from patent US20080206316A1, “Chromium-Fatty Acid Compounds and Methods of Making and Using Thereof” (priority 2005, published 2008).

Test system: diabetic mice
Assay: Fasting blood glucose in diabetic mice fed test diets
Type: in vivo, Mice (C57BL/6J)
Experimental: Mice (C57BL/6J) weighing 20-grams were fed a high fat, high sucrose diet with no added chromium (No. D01030101, Research Diets Inc., New Brunswick, N.J.). After two weeks, they were injected intraperitoneally (i.p.) with streptozotocin (in phosphate-buffered saline, PBS) at a dose of 35 mg/kg body weight on 3 consecutive days. The combination of the high fat/high sucrose diet and streptozotocin treatment produced an impaired glucose tolerance evident 7 days following the initial streptozotocin injection (FIG. 5). Glucose tolerance was measured in mice fasted overnight and then injected i.p. with 1 g glucose/kg body weight (0.25 mL of a 10% glucose solution in PBS). Blood glucose was measured using a glucometer (OneTouch Ultra, LifeScan Inc., Milpitas, Calif.) on a drop of blood obtained from the saphenous vein just prior to (0 time) and at 10, 30, 60, 90 and 120 minutes following injection.
Animals were subsequently assigned to one of four different diet treatments, six animals per group. The diets were modified from the above high fat, high sucrose diet (Table 6). Each diet contained 1.5% fish oil concentrate (40:20 EPA/DHA ethyl ester, Ocean Nutrition Canada, Ltd., Mulgrave, NS). […] The animals were fed these diets for 4 weeks, after which time, fasting blood glucose and glucose tolerance was evaluated. […]

O=C([O-])c1ccccn1.O=C([O-])c1ccccn1.O=C([O-])c1ccccn1.[Cr+3] [Cr picolinate]
Fast blood glucose levels (diabetic mice (high fat/high sucrose diet + streptozotocin), diet with 1000 μg elemental Cr/kg diet for 4 weeks, fasted): 8.17 ± 1.8 mM | fasting blood glucose compared to the level in the control group (diabetic mice, dietary Cr for 4 weeks): reduction in fasting blood glucose
